Results from patent US20250281424A1 (New York Blood Center, Inc, priority 2020, published 2025).
pIC50: −log10 of the molar value.

Target: T1, human PF4 (Homo sapiens, UniProt P02776)
T1 construct: PF4 is a 70 amino acid, lysine-rich 7.8 kDa platelet-specific protein; made in house; host or cells: Escherichia coli BL21DE3 pLysS (pT7-7) and/or Drosophila S2 cells
T1 sequence (P02776 32-101): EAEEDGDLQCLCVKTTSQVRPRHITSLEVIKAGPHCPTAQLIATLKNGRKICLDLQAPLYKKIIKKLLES
Experiment: Inhibition of PF4 tetramer formation (BS3 cross-linking, SDS-PAGE)
Assay type: biochemical
Details: for inhibition at 1 µM: 1 μM inhibitor; for inhibition at 1 µM / inhibition at 3 µM / inhibition at 5 µM / inhibition at 10 µM: read-out: % inhibition of PF4 tetramer formation at single concentration of inhibitor; for inhibition at 3 µM: 3 μM inhibitor (column A); for inhibition at 5 µM: 5 μM inhibitor; for inhibition at 10 µM: 10 μM inhibitor (column A); for pIC50: read-out: IC50 of PF4 tetramer formation inhibition
Outline: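 Recombinant human wild-type PF4 (E. coli-expressed, heparin-purified), 10 μg/ml in PBS, incubated with compound 15 min at 37° C or 60 min at room temperature, then cross-linked with 0.2 mM BS3 for 30 min at room temperature. Reducing 12% SDS-PAGE; bands quantified as % tetramer, trimer, dimer, monomer versus compound-free control.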

SMILES | inhibition at 1 µM [%] | inhibition at 3 µM [%] | inhibition at 5 µM [%] | inhibition at 10 µM [%] | pIC50
CCCC(=O)C1C(=O)c2ccc(C(=O)c3ccc4c(c3)C(=O)C(C(=O)CCC)C4=O)cc2C1=O (stereo not drawn) [Example 150, 2-butanoyl-5-(2-butanoyl-1,3-dioxo-2,3-dihydro-1H-indene-5-carbonyl)-2,3-dihydro-1H-indene-1,3-dione] | – | – | 50 | 75 | ~4.66
O=C1CC(=O)c2cc(Oc3ccc4c(c3)C(=O)CC4=O)ccc21 [Example 7, 5-(2,3-dihydro-1,3dioxo-1h-inden-6-yloxy)-2,3-dihydro-1,3-dioxo-1h-indene] | – | – | – | – | 5.95
O=C(Nc1cccc(Cl)c1)C1C(=O)c2ccc(S(=O)(=O)c3ccc4c(c3)C(=O)C(C(=O)Nc3cccc(Cl)c3)C4=O)cc2C1=O (stereo not drawn) [Example 86, N-(3-chlorophenyl)-5-({2-[(3-chlorophenyl)carbamoyl]-1,3-dioxo-2,3-dihydro-1H-inden-5-yl}sulfonyl)-1,3-dioxo-2,3-dihydro-1H-indene-2-carboxamide] | – | – | 73 | 90 | –
CC(C)(C)OC(=O)N[C@@H](Cc1ccccc1)C(=O)C1C(=O)c2ccc(S(=O)(=O)c3ccc4c(c3)C(=O)C(C(=O)[C@H](Cc3ccccc3)NC(=O)OC(C)(C)C)C4=O)cc2C1=O (stereo partly drawn) [Example 158, tert-butyl N-[(2S)-1-[5-({2-[(2S)-2-{[(tert-butoxy)carbonyl]amino}-3-phenylpropanoyl]-1,3-dioxo-2,3-dihydro-1H-inden-5-yl}sulfonyl)-1,3-dioxo-2,3-dihydro-1H-inden-2-yl]-1-oxo-3-phenylpropan-2-yl]carbamate] | – | – | 100 | 100 | 5.85
CC(C)(C)OC(=O)N1CCCC[C@H]1C(=O)C1C(=O)c2ccc(C(=O)c3ccc4c(c3)C(=O)C(C(=O)[C@@H]3CCCCN3C(=O)OC(C)(C)C)C4=O)cc2C1=O (stereo partly drawn) [Example 127, tert-butyl (2S)-2-(5-{2-[(2S)-1-[(tert-butoxy)carbonyl]piperidine-2-carbonyl]-1,3-dioxo-2,3-dihydro-1H-indene-5-carbonyl}-1,3-dioxo-2,3-dihydro-1H-indene-2-carbonyl)piperidine-1-carboxylate] | – | – | – | – | 6.00
O=C(Nc1ccccc1)C1C(=O)c2ccc(S(=O)(=O)c3ccc4c(c3)C(=O)C(C(=O)Nc3ccccc3)C4=O)cc2C1=O (stereo not drawn) [Example 37, 5,5′-sulphonylbis(1,3-dioxo-indan-2-carboxylic acid (phenyl)-amide)] | – | – | – | – | ~6.00
CC(C)(C)OC(=O)N1CC2(CC(C(=O)C3C(=O)c4ccc(-c5ccc6c(c5)C(=O)C(C(=O)C5CC7(C5)CN(C(=O)OC(C)(C)C)C7)C6=O)cc4C3=O)C2)C1 (stereo not drawn) [Example 211, tert-butyl 6-(2′-{2-[(tert-butoxy)carbonyl]-2-azaspiro[3.3]heptane-6-carbonyl}-1,1′,3,3′-tetraoxo-1H,1′H,2H,2′H,3H,3′H-[5,5′-biindene]-2-carbonyl)-2-azaspiro[3.3]heptane-2-carboxylate] | – | – | 76 | 95 | 5.48
O=C1c2ccc(S(=O)(=O)c3ccc4c(c3)C(=O)C(C(=O)C3CCCS3(=O)=O)C4=O)cc2C(=O)C1C(=O)C1CCCS1(=O)=O (stereo not drawn) [Example 372, 2-(5-{[2-(1,1-dioxo-1λ^6-thiolane-2-carbonyl)-1,3-dioxo-2,3-dihydro-1H-inden-5-yl]sulfonyl}-1,3-dioxo-2,3-dihydro-1H-indene-2-carbonyl)-1λ^6-thiolane-1,1-dione] | – | 30 | – | – | –
CCCCC(=O)C1C(=O)c2ccc(C(=O)c3ccc4c(c3)C(=O)C(C(=O)CCCC)C4=O)cc2C1=O (stereo not drawn) [Example 153, 5-(1,3-dioxo-2-pentanoyl-2,3-dihydro-1H-indene-5-carbonyl)-2-pentanoyl-2,3-dihydro-1H-indene-1,3-dione] | – | – | 100 | 100 | 5.62
O=C(O)CCC(=O)C1C(=O)c2ccc(C(=O)c3ccc4c(c3)C(=O)C(C(=O)CCC(=O)O)C4=O)cc2C1=O (stereo not drawn) [Example 130, 4-{5-[2-(3-carboxypropanoyl)-1,3-dioxo-2,3-dihydro-1H-indene-5-carbonyl]-1,3-dioxo-2,3-dihydro-1H-inden-2-yl}-4-oxobutanoic acid] | – | – | – | – | 5.85
O=C1CC(=O)c2cc(S(=O)(=O)c3ccc4c(c3)C(=O)CC4=O)ccc21 [Example 12, 5,5′-sulfonylbis(1h-indene-1,3(2h)-dione)] | – | – | – | – | 5.63
O=C(CC1CCCC1)C1C(=O)c2ccc(S(=O)(=O)c3ccc4c(c3)C(=O)C(C(=O)CC3CCCC3)C4=O)cc2C1=O (stereo not drawn) [Example 142, 2-(2-cyclopentylacetyl)-5-{[2-(2-cyclopentylacetyl)-1,3-dioxo-2,3-dihydro-1H-inden-5-yl]sulfonyl}-2,3-dihydro-1H-indene-1,3-dione] | – | – | 95 | 94 | 4.74
O=C(c1ccc2c(c1)C(=O)C(C(=O)CC1CC1)C2=O)c1ccc2c(c1)C(=O)C(C(=O)CC1CC1)C2=O (stereo not drawn) [Example 140, 2-(2-cyclopropylacetyl)-5-[2-(2-cyclopropylacetyl)-1,3-dioxo-2,3-dihydro-1H-indene-5-carbonyl]-2,3-dihydro-1H-indene-1,3-dione] | – | – | 92 | 93 | 5.33
CC(C)(C)CC(=O)NCC(=O)C1C(=O)c2ccc(C(=O)c3ccc4c(c3)C(=O)C(C(=O)CNC(=O)CC(C)(C)C)C4=O)cc2C1=O (stereo not drawn) [Example 185, N-[2-(5-{2-[2-(3,3-dimethylbutanamido)acetyl]-1,3-dioxo-2,3-dihydro-1H-indene-5-carbonyl}-1,3-dioxo-2,3-dihydro-1H-inden-2-yl)-2-oxoethyl]-3,3-dimethylbutanamide] | – | – | 89 | 94 | 5.36
COCCOCCC(=O)C1C(=O)c2ccc(S(=O)(=O)c3ccc4c(c3)C(=O)C(C(=O)CCOCCOC)C4=O)cc2C1=O (stereo not drawn) [Example 178, 2-[3-(2-methoxyethoxy)propanoyl]-5-({2-[3-(2-methoxyethoxy)propanoyl]-1,3-dioxo-2,3-dihydro-1H-inden-5-yl}sulfonyl)-2,3-dihydro-1H-indene-1,3-dione] | – | – | 22 | 75 | –
CC(C)(C)OC(=O)N1CCCC[C@@H]1C(=O)C1C(=O)c2ccc(Oc3ccc4c(c3)C(=O)C(C(=O)[C@H]3CCCCN3C(=O)OC(C)(C)C)C4=O)cc2C1=O (stereo partly drawn) [Example 274, tert-butyl (2R)-2-[5-({2-[(2R)-1-[(tert-butoxy)carbonyl]piperidine-2-carbonyl]-1,3-dioxo-2,3-dihydro-1H-inden-5-yl}oxy)-1,3-dioxo-2,3-dihydro-1H-indene-2-carbonyl]piperidine-1-carboxylate] | 21 | 60 | – | – | –
O=C(c1ccc2c(c1)C(=O)C(C(=O)NCc1ccc(F)cc1)C2=O)c1ccc2c(c1)C(=O)C(C(=O)NCc1ccc(F)cc1)C2=O (stereo not drawn) [Example 26, 5,5′-carbonylbis(1,3-dioxo-indan-2-carboxylic acid ((4-fluorophenyl)methyl)-amide)] | – | – | 59 | 66 | 5.44
CC(C)(C)OC(=O)N1C[C@@H]2[C@H](C1)[C@H]2C(=O)C1C(=O)c2ccc(-c3ccc4c(c3)C(=O)C(C(=O)[C@H]3[C@@H]5CN(C(=O)OC(C)(C)C)C[C@@H]53)C4=O)cc2C1=O (stereo partly drawn) [Example 216, tert-butyl (1R,5S,6R)-6-{2′-[(1R,5S,6R)-3-[(tert-butoxy)carbonyl]-3-azabicyclo[3.1.0]hexane-6-carbonyl]-1,1′,3,3′-tetraoxo-1H,1′H,2H,2′H,3H,3′H-[5,5′-biindene]-2-carbonyl}-3-azabicyclo[3.1.0]hexane-3-carboxylate] | – | – | 82 | 91 | 5.60

Second part, led by results:

inhibition at 1 µM [%] | inhibition at 3 µM [%] | SMILES | inhibition at 5 µM [%] | inhibition at 10 µM [%] | pIC50
1 | 21 | CS(=O)(=O)N1CCC(NC(=O)C2C(=O)c3ccc(Oc4ccc5c(c4)C(=O)C(C(=O)NC4CCN(S(C)(=O)=O)CC4)C5=O)cc3C2=O)CC1 (stereo not drawn) [Example 369, N-(1-methanesulfonylpiperidin-4-yl)-5-({2-[(1-methanesulfonylpiperidin-4-yl)carbamoyl]-1,3-dioxo-2,3-dihydro-1H-inden-5-yl}oxy)-1,3-dioxo-2,3-dihydro-1H-indene-2-carboxamide] | – | – | –
21 | 72 | COCC(=O)C1C(=O)c2ccc(C(=O)c3ccc4c(c3)C(=O)C(C(=O)COC)C4=O)cc2C1=O (stereo not drawn) [Example 234, 2-(2-methoxyacetyl)-5-[2-(2-methoxyacetyl)-1,3-dioxo-2,3-dihydro-1H-indene-5-carbonyl]-2,3-dihydro-1H-indene-1,3-dione] | – | – | 5.82
25 | 50 | C[C@H](NC(=O)C1C(=O)c2ccc(C(=O)c3ccc4c(c3)C(=O)C(C(=O)N[C@@H](C)C(=O)O)C4=O)cc2C1=O)C(=O)O (stereo partly drawn) [Example 316, (2S)-2-{[5-(2-{[(1S)-1-carboxyethyl]carbamoyl}-1,3-dioxo-2,3-dihydro-1H-indene-5-carbonyl)-1,3-dioxo-2,3-dihydro-1H-inden-2-yl]formamido}propanoic acid] | – | – | –
23 | 59 | O=C(NC1CCS(=O)(=O)C1)C1C(=O)c2ccc(S(=O)(=O)c3ccc4c(c3)C(=O)C(C(=O)NC3CCS(=O)(=O)C3)C4=O)cc2C1=O (stereo not drawn) [Example 360, N-(1,1-dioxo-1λ^6-thiolan-3-yl)-5-({2-[(1,1-dioxo-1λ^6-thiolan-3-yl)carbamoyl]-1,3-dioxo-2,3-dihydro-1H-inden-5-yl}sulfonyl)-1,3-dioxo-2,3-dihydro-1H-indene-2-carboxamide] | – | – | –
